Measurements: patent US9302999B2, “Substituted triazoles as herbicides” (E. I. DU PONT DE NEMOURS AND COMPANY, priority 2012, dated 2016)

Key:
[1] = test system: dayflower, VA (Virginia (VA) dayflower, Commelina virginica); test: Test F pre-/postemergence: dayflower, VA; type: in vivo; conditions: Postemergence, scale 0 to 100
From the text: (§1) Seeds of plant species selected from corn (Zea mays), soybean (Glycine max), velvetleaf (Abutilon theophrasti), lambsquarters (Chenopodium album), poinsettia, wild (wild poinsettia, Euphorbia heterophylla), pigweed, palmer (palmer pigweed, Amaranthus palmeri), waterhemp (common waterhemp, Amaranthus rudis), surinam grass (Brachiaria decumbens), crabgrass, Brazil (Brazilian crabgrass, Digitaria horizontalis), panicum, fall (fall panicum Panicum dichotomiflorum), crabgrass, large (large crabgrass, Digitaria sanguinalis), foxtail, giant (giant foxtail, Setaria faberii), foxtail, green (green foxtail Setaria viridis), goosegrass (Eleusine indica), ragweed (common ragweed, Ambrosia elatior), barnyardgrass (Echinochloa crus-galli), sandbur (southern sandbur, Cenchrus echinatus), arrowleaf sida (Sida rhombifolia), ryegrass, Italian (Italian ryegrass, Lolium multiflorum), dayflower, VA (Virginia (VA) dayflower, Commelina virginica), field bindweed (Convolvulus arvensis), cocklebur (common cocklebur, Xanthium strumarium), morningglory (Ipomoea coccinea), nightshade (eastern black nightshade, Solanum ptycanthum), kochia (Kochia scoparia), nutsedge, yellow (yellow nutsedge, Cyperus esculentus), johnsongrass (Sorghum halepense), smartweed (ladysthumb smartweed, Polygonum persicaria), and beggarticks (hairy beggarticks, Bidens pilosa), were planted into a silt loam soil and treated preemergence with test chemicals formulated in a non-phytotoxic solvent mixture which included a surfactant. At the same time, plants selected from these crop and weed species and also pigweed (Amaranthus retroflexus), waterhemp_RES1 (ALS/Triazine resistant common waterhemp, Amaranthus rudis) and waterhemp_RES2 (ALS/HPPD resistant common waterhemp, Amaranthus rudis) were planted in pots containing a planting medium comprising spaghnum peat moss, vermiculite, wetting agent and starter nutrients treated with postemergence applications of some of the test chemicals formulated in the same manner. Plants ranged in height from 2 to 18 cm for postemergence treatments (1- to 4-leaf stage).
(§2) Treated plants and controls were maintained in a greenhouse for 14 to 21 days, after which time all species were compared to controls and visually evaluated. Plant response ratings, summarized in Table E, are based on a scale of 0 to 100 where 0 is no effect and 100 is complete control. A dash (-) response means no test result.

corn (Zea mays) = test: Test F pre-/postemergence: corn; type: in vivo; conditions: Postemergence, scale 0 to 100
From the text: as §1, §2

Cc1nn(-c2ccnc(Cl)c2)nc1Cc1ccnc(C(F)(F)F)c1 [Compound 141]
Plant response rating, Dayflower, VA ([1]; 8 g ai/ha): 10 | Plant response rating, Dayflower, VA ([1]; 16 g ai/ha): 10 | Plant response rating, Dayflower, VA ([1]; 31 g ai/ha): 35 | Plant response rating, Dayflower, VA ([1]; 62 g ai/ha): 60 | Plant response rating, Dayflower, VA ([1]; 125 g ai/ha): 75 | Plant response rating, Corn (corn (Zea mays); 8 g ai/ha): 15 | Plant response rating, Corn (corn (Zea mays); 16 g ai/ha): 15 | Plant response rating, Corn (corn (Zea mays); 31 g ai/ha): 20 | Plant response rating, Corn (corn (Zea mays); 62 g ai/ha): 20 | Plant response rating, Corn (corn (Zea mays); 125 g ai/ha): 30
